These results are taken from patent publication US11591632B2, “Genetically-mutated bacterial strain for detecting estrogenic compound and method for detecting estrogenic compound using the same” (INDUSTRY-UNIVERSITY COOPERATION FOUNDATION HANYANG …, priority 2016, dated 2023).

The target in experiment [1] is T1, hERα LBD (Homo sapiens, UniProt P03372).
T1 construct: hERα LBD (N304-T553: amino acid 304, asparagine, through amino acid 553, threonine); expressed in transfected cells; host or cells: E. coli FW102 OL2-62
Type of experiment: cell-based. To be noted: E. coli FW102 OL2-62 pACλCI::RIP140-FLAG pBRαNTD::hERα LBD-FLAG, 20 μM IPTG, 30 minutes incubation. The procedure: (§1) Afterward, estrogens and EDCs were added at corresponding concentrations, and the cells were further incubated for 30 minutes. Subsequently, 800 μL of the cells were harvested, and resuspended in 800 μL of a buffer solution (60 mM of Na2HPO4, 40 mM of NaH2PO4, 10 mM of KCl, 1 mM of MgSO47H2O, 400 μM of dithiothreitol), followed by measuring OD600 (cell content). Afterward, the cells were lysed by ultrasonication and treated with 160 μL of 4 mg/mL ONPG, and thus a time to change a color of the specimen into yellow was recorded. When the color of the specimen changed to yellow, the reaction was stopped with 400 μL of 1M Na2CO3.

The subject of experiment [2] is hERα LBD. The following applies: LE7197, lacZ expression in Miller units, with IPTG, 30 minutes incubation. The procedure:
as §1, with “The E. coli FW102 OL2-62 pACλCI::TIF2 BD-FLAG pBRαNTD::hERα LBD-FLAG strain was inoculated, and cultured up to OD600˜ 0.4 (20 μM IPTG added; the inducible substance for inducing expression of λCI-TIF2 BD-FLAG and αNTD-hERα LBD-FLAG). Afterward, estrogens” for “Afterward, estrogens”
Afterward, through β-galactosidase analysis, the expression of a reporter gene, the lacZ gene, was expressed in terms of Miller units.

T1 sequence (P03372 304-553): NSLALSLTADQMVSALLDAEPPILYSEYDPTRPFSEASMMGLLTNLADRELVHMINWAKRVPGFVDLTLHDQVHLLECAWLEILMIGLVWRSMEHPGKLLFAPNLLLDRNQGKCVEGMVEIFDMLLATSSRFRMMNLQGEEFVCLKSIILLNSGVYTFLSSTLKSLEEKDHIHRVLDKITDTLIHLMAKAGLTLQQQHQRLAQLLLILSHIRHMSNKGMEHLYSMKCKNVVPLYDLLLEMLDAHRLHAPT
T1 sequence (P48552 whole entry partner, the tested form may be a part): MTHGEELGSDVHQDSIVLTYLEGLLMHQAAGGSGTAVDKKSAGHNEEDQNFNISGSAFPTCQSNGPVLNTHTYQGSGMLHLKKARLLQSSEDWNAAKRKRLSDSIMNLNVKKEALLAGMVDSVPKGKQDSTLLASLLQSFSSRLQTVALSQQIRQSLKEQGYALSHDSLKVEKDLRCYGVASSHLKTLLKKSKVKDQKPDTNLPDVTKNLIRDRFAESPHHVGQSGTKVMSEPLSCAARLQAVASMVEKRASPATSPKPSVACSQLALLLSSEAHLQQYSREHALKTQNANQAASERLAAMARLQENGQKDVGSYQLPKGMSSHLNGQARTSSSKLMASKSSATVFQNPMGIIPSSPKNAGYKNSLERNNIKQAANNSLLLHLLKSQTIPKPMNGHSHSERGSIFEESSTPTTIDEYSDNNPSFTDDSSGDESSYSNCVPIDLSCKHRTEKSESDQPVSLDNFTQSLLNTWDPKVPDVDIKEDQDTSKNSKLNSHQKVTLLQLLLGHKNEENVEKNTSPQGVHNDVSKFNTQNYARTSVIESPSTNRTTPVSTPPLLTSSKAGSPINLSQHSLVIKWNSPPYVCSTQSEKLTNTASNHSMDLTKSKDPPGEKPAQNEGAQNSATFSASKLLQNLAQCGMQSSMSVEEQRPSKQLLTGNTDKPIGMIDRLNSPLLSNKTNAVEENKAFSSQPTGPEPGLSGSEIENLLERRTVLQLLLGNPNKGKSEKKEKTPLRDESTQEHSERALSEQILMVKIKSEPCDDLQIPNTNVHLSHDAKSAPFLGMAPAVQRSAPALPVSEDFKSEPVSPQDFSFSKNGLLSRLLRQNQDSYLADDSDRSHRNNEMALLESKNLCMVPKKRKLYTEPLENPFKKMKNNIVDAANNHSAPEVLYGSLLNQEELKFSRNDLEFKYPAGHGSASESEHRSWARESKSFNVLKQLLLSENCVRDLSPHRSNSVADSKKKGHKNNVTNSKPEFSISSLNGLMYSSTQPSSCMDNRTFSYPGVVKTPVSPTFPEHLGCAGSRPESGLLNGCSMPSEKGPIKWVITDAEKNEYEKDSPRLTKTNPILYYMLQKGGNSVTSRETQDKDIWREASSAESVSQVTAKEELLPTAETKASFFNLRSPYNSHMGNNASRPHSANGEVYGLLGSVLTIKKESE
T1 sequence (P0A7Z4 1-248 partner limits assumed): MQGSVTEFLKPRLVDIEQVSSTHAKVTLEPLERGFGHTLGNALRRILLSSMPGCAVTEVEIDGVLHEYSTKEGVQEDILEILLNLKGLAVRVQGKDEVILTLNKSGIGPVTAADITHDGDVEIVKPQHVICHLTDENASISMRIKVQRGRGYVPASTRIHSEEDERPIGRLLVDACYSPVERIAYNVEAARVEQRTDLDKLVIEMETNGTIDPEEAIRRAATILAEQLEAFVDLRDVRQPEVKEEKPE
T1 sequence (P03034 whole entry partner, the tested form may be a part): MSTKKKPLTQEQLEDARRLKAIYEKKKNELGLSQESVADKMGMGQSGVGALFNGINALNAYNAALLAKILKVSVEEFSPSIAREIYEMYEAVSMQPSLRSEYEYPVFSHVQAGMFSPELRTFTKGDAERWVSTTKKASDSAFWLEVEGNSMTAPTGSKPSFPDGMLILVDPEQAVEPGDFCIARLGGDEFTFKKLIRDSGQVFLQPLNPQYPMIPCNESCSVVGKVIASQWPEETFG

On to `CC(C)(c1ccc(O)cc1)c1ccc(O)cc1` [bisphenol A], for which the “Miller units as a function of compound concentration in the specimen” value on hERα LBD [1] is “the higher the Miller units”. On to `Oc1ccc(Cc2ccc(O)cc2)cc1` [bisphenol F], for which, in the experiment with hERα LBD [2], the “concentration that can be sensed/detected by sensor strain” value was “several hundred”. The same measure, in the same setting: the entry for `O=S(=O)(c1ccc(O)cc1)c1ccc(O)cc1` [bisphenol S] is “several hundred”. Consider nonylphenol, for which the “Miller units as a function of compound concentration in the specimen” value at hERα LBD [1] is recorded as “the higher the Miller units”. For the same compound, in the experiment with hERα LBD [2], the “concentration that can be sensed/detected by sensor strain” value is “approximately 100 nM”.
